This note sets out measurements from patent US10759796B2, “CXCR4 inhibitors and uses thereof” (X4 Pharmaceuticals, Inc., priority 2016, dated 2020).

A word on the half-life: it is how long it takes for the measured level to halve. The low end stands for fast loss, the high end for slow loss. By Cmax is commonly meant the highest concentration seen after dosing. In general, bioavailability refers to dose-corrected exposure relative to a reference, in per cent. A lower bioavailability goes with little systemic uptake. Usually AUC stands for the area under the concentration-time curve, a measure of exposure. Low values mean less exposure, high ones more exposure.

Where two headings read alike, the source gives them in different places.

The nature of data set [1]: Pharmacokinetics after intravenous or oral administration to dogs. In kind it is in vivo. Particulars: male, beagle, plasma, dog. The procedure:
Example 32: Pharmacokinetics of Compounds After Intravenous or Oral Administration to Male Beagle Dogs
The study design (9 animals, fasted overnight and fed at 4 h post dosing) consists of administrating the drug [IV: 1 mg/kg via cephalic vein injection], [PO: 3 mg/kg and 10 mg/kg via oral gavage] and collecting samples at serial bleeding for plasma at 0.03, 0.08, 0.25, 0.5, 1, 2, 4, 8, 24, 48 and 72 hr. The IV and PO dosing solutions were prepared in 50 mM citrate buffer (pH 4.0) at 0.5 mg/mL, 1.5 mg/mL and 5 mg/mL, respectively. The blood collection was performed as follows: the animals were restrained manually, and approx. 0.5 mL blood/time point was collected from the cephalic vein into pre-cooled K2EDTA tubes. Blood samples were put on wet ice and centrifuged at 4° C. to obtain plasma within 15 minutes of sample collection. All samples were stored at approximately −70° C. until analysis.
Plasma Samples Preparation:
An aliquot of 30 μL sample was added to 100 MeCN containing 200 ng/mL IS (Dexamethasone). The mixture was vortexed for 10 min and centrifuged at 5,800 rpm for 10 min. An aliquot of 30 μL supernatant was added to 60 μL H2O and the mixture was vortexed for 5 min. An aliquot of 4 μL supernatant was injected for LC-MS/MS analysis.
The sample analysis was performed using UPLC-MS/MS-02 (Triple Quad 4000) under the following conditions: positive ion, ESI, MRM detection using dexamethasone as internal standard. HPLC conditions: mobile phase A: H2O-0.1% FA, mobile phase B: ACN-0.1% FA on ACQUITY UPLC HSS T3 (2.1×50 mm, 1.8 μm) column at 60° C.

Data set [2] can be described thus: MTD and pharmacokinetics and brain penetration after PO administration. It is filed as in vivo, Male C57BL/6 Mice. Particulars: male; for Kp / Kp uu: Mouse; for AUC(0-t): C57BL/6. The procedure: Example 30: MTD and Pharmacokinetics and Brain Penetration Experiment to Determine Brain and Plasma Concentration of Compounds after PO Administration to Male C57BL/6 Mice
The study was designed with 2 groups (18 animals and 24 animals) consists of administrating the drug [PO-50, 100, 150, 225, 300 mg/kg via oral gavage] and collecting samples at terminal bleeding for plasma, brain and CSF at 0.25, 0.5, 1, 4, 8, and 24 hr. All PO dosing solutions were prepared in 50 mM citrate buffer (pH 4.0).
The blood collection was performed as follows: the animal was restrained manually at the designated time points, approximately 500 μL of blood sample was collected via cardiac puncture vein into EDTA-2K tubes. The whole blood needed to be divided into two parts; one part was placed in the tube containing EDTA-2K for plasma generation and the other was used for the hematology assay, respectively. The blood samples for plasma generation were maintained in wet ice first and centrifuged to obtain plasma (2000 g, 4° C., 5 min) within 15 minutes post sampling. The brain collection was performed as follows: a mid-line incision was made in the animal's scalp and the skin was retracted. Using small bone cutters and rongeurs, the skull overlying the brain was removed. The brain was removed using a spatula and rinsed with cold saline. The brain was placed in screw-top tubes, and then stored at −70° C. until analysis. The CSF collection was performed as follows: a mid line incision was made on the neck. The muscle under the skin was cut to expose the cisterna magna. The cisterna magna was penetrated with the sharp end of one capillary (Burn one end of capillary to make it sharp). The CSF was sucked spontaneously into the capillary.
Plasma Sample Preparation:
An aliquot of 30 μL sample was added with 100 μL MeCN containing 100 ng/mL IS (Dexamethasone). The mixture was vortexed for 10 min and centrifuged at 5800 rpm for 10 min. An aliquot of 40 μL supernatant was added to 40 μL H2O and the mixture was vortexed for 5 min. An aliquot of 2 μL supernatant was injected for LC-MS/MS analysis.
Brain Sample Preparation:
An aliquot of 30 μL brain homogenate (brain:PBS=1:3, w/v) sample was added to 100 μL MeCN containing 100 ng/mL IS (Dexamethasone). The mixture was vortexed for 10 min and centrifuged at 5800 rpm for 10 min. An aliquot of 40 μL supernatant was added to 40 μL H2O and the mixture was vortexed for 5 min. An aliquot of 2 μL supernatant was injected for LC-MS/MS analysis.
An aliquot of 3 μL sample was added to a mixture of 6 CSF, 9 μL MeOH/H2O (1/1), 40 μL MeCN containing 200 ng/mL IS (Dexamethasone), and 116 μL H2O. The mixture was vortexed for 5 min. An aliquot of 4 μL was injected for LC-MS/MS analysis.
The sample analysis was performed on UPLC-MS/MS-02 (Triple Quad 4000) under the following conditions: positive ion, ESI, MRM detection using dexamethasone as internal standard. HPLC conditions: mobile phase A: H2O-0.1% formic acid, mobile phase B: MeCN-0.1% formic acid on: ACQUITY UPLC HSS T3 (2.1×50 mm, 1.8 μm) at 60° C.

Where [3] appears, read: C57BL/6, brain and plasma, single administration, D1-50 mg/kg PO.
[4] abbreviates: C57BL/6, brain, multiple administration, D5-300 mg/kg PO.

For `CN1CCN(c2cccc3nc([C@H]4CCC[C@@H](c5ncccc5Cl)N4)cn23)CC1` (single isomer, unassigned) [Compound I-188], in data set [1] (IV: 1 mg/kg), the clearance is 19.8 mL/min/kg. Further, the figures for the half-life in data set [1] (IV: 1 mg/kg), in data set [1] (PO: 3 mg/kg) and in data set [1] (PO: 10 mg/kg) were 27.3 h, 27.3 h and 23.2 h, respectively. For the same compound, in data set [1] (IV: 1 mg/kg, read-out: Vss), the Vd was determined as 39 L/kg. Further, the Cmax in data set [1] (PO: 3 mg/kg) was 46.1 ng/mL; in data set [1] (PO: 10 mg/kg) it was 280 ng/mL. Moreover, the results for the bioavailability in data set [1] (PO: 3 mg/kg) and in data set [1] (PO: 10 mg/kg) were 65% and 97.8%, respectively. Also, the AUC in data set [1] (IV: 1 mg/kg) came out at 722 ng·h/mL; in data set [1] (PO: 3 mg/kg), 1420 ng·h/mL; in data set [1] (PO: 10 mg/kg), 7500 ng·h/mL. Also, the Kp in data set [2] (setting [3]) stood at 2.49; in data set [2] (setting [4]), 5.61. Further, the Kp uu in data set [2] (setting [3]) amounted to 0.94; in data set [2] (setting [4]), 2.12. Further, the AUC(0-t) in data set [2] (Mouse brain, multiple administration, D5-300 mg/kg PO, read-out: AUClast (b)) came to 430000 ng·h/mL; in data set [2] (Mouse brain, single administration, D1-50 mg/kg PO, read-out: AUClast (b)), 58600 ng·h/mL; in data set [2] (Mouse plasma, multiple administration, D5-300 mg/kg PO, read-out: AUClast (p)), 76600 ng·h/mL; in data set [2] (Mouse plasma, single administration, D1-50 mg/kg PO, read-out: AUClast (p)) it was 23500 ng·h/mL.
